Results taken from patent publication US10689383B2, “Optionally fused heterocyclyl-substituted derivatives of pyrimidine useful for the treatment of inflammatory, metabolic, oncologic and autoimmune diseases” (NUEVOLUTION A/S, priority 2014, dated 2020).

Assays:
[1] = target: T1, yeast Gal4-DNA binding domain fused to the ligand binding domain of human RORγ (Homo sapiens, UniProt P51449); test: RORγ Reporter Assay (Gal4); assay type: cell-based; details: RORγ Reporter Assay (Gal4) at 1 μM; values given as lower bounds of ranges
T1 construct: host or cells: HEK293t
T1 sequence (P51449 269-508 limits assumed): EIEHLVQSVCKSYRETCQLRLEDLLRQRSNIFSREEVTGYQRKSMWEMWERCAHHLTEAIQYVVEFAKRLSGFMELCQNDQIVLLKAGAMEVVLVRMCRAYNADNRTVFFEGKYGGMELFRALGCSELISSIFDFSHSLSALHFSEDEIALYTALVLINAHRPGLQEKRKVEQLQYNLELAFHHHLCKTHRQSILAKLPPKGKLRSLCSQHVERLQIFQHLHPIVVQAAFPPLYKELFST
Method: The activity of the compounds was evaluated using a Fluorescence Polarization (FP) Assay and, in most cases, a Th17 Assay and/or RORγ Reporter assay (also referred to as Gal4 assay). The FP assay is an in vitro assay monitoring binding within the ligand binding pocket. The RORγ and the Th17 assays are both cell-based assays monitoring functional activity of the compound assayed.
Cell-based RORγ functional assays were performed using a commercially available assay product (INDIGO Biosciences, State College, Pa., USA; product # IB04001). The RORγ reporter cells are HEK293t cells transfected with one vector that provides high level constitutive expression of a hybrid protein comprised of the yeast Gal4-DNA binding domain fused to the ligand binding domain of human RORγ, and a second vector comprising the firefly luciferase cDNA functionally linked to the upstream activation sequence (UAS) of yeast Gal4. A suspension of RORγ Reporter Cells was prepared using the protocol and culture medium provided in the kit product, and 100 μl of the Reporter Cell suspension was then dispensed into wells of a white, collagen-treated, 96-well assay plate. Concentrated stocks of test compounds were prepared in DMSO, then further diluted using media provided in the kit to generate ‘2×-concentration’ treatment media. 100 μl of medium for each respective treatment concentration dispensed into triplicate assay wells, thereby combining with the reporter cells. All media formulations contained 10% charcoal stripped Fetal Bovine Serum, but are otherwise proprietary to INDIGO Biosciences. Final treatment concentrations for each test compound were 1,000 nM and 100 nM, each with 0.1% residual DMSO. Separate control treatments were media supplemented with vehicle only (0.1% DMSO) to determine the constitutive level of RORγ activity in the reporter cells, and the reference inverse-agonist ursolic acid (f.c. 6,000 nM to 8.2 nM in 3-fold decrements) to establish a positive control inverse-agonist dose response. Assay plates were placed in a 37° C., 5% CO2, 85% humidity incubator for 24 hour. Treatment media were then discarded, 100 μl of luciferase detection reagent was added to each well, and relative light units (RLUs) were quantified from each assay well using a plate reading luminometer. Values of average RLU+/−standard deviation were computed for all treatment sets, followed by the calculations of fold-reduction: [Average RLUVehicle/Average RLUTest Cmpd]. Percent-reduction of RORγ activity in response to respective test compound treatments was calculated: [100*(1−[Ave RLUTest Cmpd/Ave RLUVehicle)] where the theoretical minimum reduction (0% reduction) derives from Vehicle treatment only, no treatment compound.

[2] = target: T2, human RORγt (Ligand Binding Domain) (Homo sapiens, UniProt P51449); test: Fluorescence Polarization (FP) Assay; details: Fluorescence Polarization (FP) Assay; values given as upper bounds of activity ranges; read-out: FP activity range
T2 construct: purchased Crelux (Planegg, Germany) batch no PC5032-1
T2 sequence (P51449 269-508 limits assumed): T1 sequence (P51449 269-508 limits assumed)
How it was run: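 In vitro FP binding assay monitoring ligand binding within the ligand binding pocket. Probe is a TAMRA-labelled RORγt ligand (MW 910 g/mole); DMSO served as negative control.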

Cc1c(N[C@H](CC(C)(C)C)C(N)=O)ncnc1N1CCCC1c1ccc(C(F)(F)F)cc1 (stereo partly drawn) [Example 14, (2R)-4,4-dimethyl-2-[[5-methyl-6-[2-[4-(trifluoromethyl)phenyl]pyrrolidin-1-yl]pyrimidin-4-yl]amino]pentanamide]
Gal4 activity range @ 1 μM (% inhibition) [1]: >0 % inhibition
IC50 [2]: < 10 µM

COc1ccc(C[C@@H](Nc2ncnc(N3CCCC3c3ccc(C(F)(F)F)cc3)c2F)C(N)=O)cc1 (stereo partly drawn) [Example 17, (2R)-2-[[5-fluoro-6-[2-[4-(trifluoromethyl)phenyl]pyrrolidin-1-yl]pyrimidin-4-yl]amino]-3-(4-methoxyphenyl)propanamide]
Gal4 activity range @ 1 μM (% inhibition) [1]: >80 % inhibition
IC50 [2]: < 0.5 µM

CC(C)(C)C[C@@H](Nc1ncnc(N2CCOCC2c2ccc(C(F)(F)F)cc2)c1F)C(N)=O (stereo partly drawn) [Example 20, (2R)-2-[[5-fluoro-6-[3-[4-(trifluoromethyl)phenyl]morpholin-4-yl]pyrimidin-4-yl]amino]-4,4-dimethyl-pentanamide]
Gal4 activity range @ 1 μM (% inhibition) [1]: >50 % inhibition
IC50 [2]: < 2 µM

CNC(=O)[C@@H](CC(C)(C)C)N(C)c1ncnc(N2CCCC2c2ccc(C(F)(F)F)cc2)c1F (stereo partly drawn) [Example 31, (2R)-2-[[5-fluoro-6-[2-[4-(trifluoromethyl)phenyl]pyrrolidin-1-yl]pyrimidin-4-yl]-methyl-amino]-N,4,4-trimethyl-pentanamide]
Gal4 activity range @ 1 μM (% inhibition) [1]: >0 % inhibition
IC50 [2]: < 10 µM

CC(C)(C)C[C@@H](Nc1ccnc(N2CCCC2c2ccc(C(F)(F)F)cc2)c1F)C(N)=O (stereo partly drawn) [Example 39, (2R)-2-[[3-fluoro-2-[2-[4-(trifluoromethyl)phenyl]pyrrolidin-1-yl]-4-pyridyl]amino]-4,4-dimethyl-pentanamide]
Gal4 activity range @ 1 μM (% inhibition) [1]: >20 % inhibition
IC50 [2]: < 10 µM

CC(C)(C)C[C@@H](Nc1ncnc(N2CCCC2c2ccc(C(F)(F)F)cn2)c1F)C(N)=O (stereo partly drawn) [Example 42, (2R)-2-[[5-fluoro-6-[2-[5-(trifluoromethyl)-2-pyridyl]pyrrolidin-1-yl]pyrimidin-4-yl]amino]-4,4-dimethyl-pentanamide]
Gal4 activity range @ 1 μM (% inhibition) [1]: >20 % inhibition
IC50 [2]: < 2 µM

CC(C)(C)C[C@@H](Nc1ncnc(N2CCCC2c2ccc(OC(C)(C)C)cc2)c1F)C(N)=O (stereo partly drawn) [Example 43, (2R)-2-[[6-[2-(4-tert-butoxyphenyl)pyrrolidin-1-yl]-5-fluoro-pyrimidin-4-yl]amino]-4,4-dimethyl-pentanamide]
Gal4 activity range @ 1 μM (% inhibition) [1]: >80 % inhibition
IC50 [2]: < 1 µM

CC(OC(C)(C)C)[C@@H](Nc1ncnc(N2CCCC2c2ccc(C(F)(F)F)cc2)c1F)C(N)=O (stereo partly drawn) [Example 51, (2R)-3-tert-butoxy-2-[[5-fluoro-6-[2-[4-(trifluoromethyl)phenyl]pyrrolidin-1-yl]pyrimidin-4-yl]amino]butanamide]
Gal4 activity range @ 1 μM (% inhibition) [1]: >80 % inhibition
IC50 [2]: < 1 µM

NC(=O)[C@@H](CC1CCOCC1)Nc1ncnc(N2CCCC2c2ccc(C(F)(F)F)cc2)c1F (stereo partly drawn) [Example 52, (2R)-2-[[5-fluoro-6-[2-[4-(trifluoromethyl)phenyl]pyrrolidin-1-yl]pyrimidin-4-yl]amino]-3-tetrahydropyran-4-yl-propanamide]
Gal4 activity range @ 1 μM (% inhibition) [1]: >80 % inhibition
IC50 [2]: < 2 µM

COc1ccc(CNc2ncnc(N3CCCC3c3ccc(C(F)(F)F)cc3)c2F)cc1OC (centres unmarked) [Example 53, N-[(3,4-dimethoxyphenyl)methyl]-5-fluoro-6-[2-[4-(trifluoromethyl)phenyl]pyrrolidin-1-yl]pyrimidin-4-amine]
Gal4 activity range @ 1 μM (% inhibition) [1]: >20 % inhibition
IC50 [2]: < 1 µM

COc1cccc(CNc2ncnc(N3CCCC3c3ccc(C(F)(F)F)cc3)c2F)c1OC (centres unmarked) [Example 54, N-[(2,3-dimethoxyphenyl)methyl]-5-fluoro-6-[2-[4-(trifluoromethyl)phenyl]pyrrolidin-1-yl]pyrimidin-4-amine]
Gal4 activity range @ 1 μM (% inhibition) [1]: >50 % inhibition
IC50 [2]: < 1 µM

Fc1c(NCc2ccc(N3CCOCC3)cc2)ncnc1N1CCCC1c1ccc(C(F)(F)F)cc1 (centres unmarked) [Example 56, 5-fluoro-N-[(4-morpholinophenyl)methyl]-6-[2-[4-(trifluoromethyl)phenyl]pyrrolidin-1-yl]pyrimidin-4-amine]
Gal4 activity range @ 1 μM (% inhibition) [1]: >20 % inhibition
IC50 [2]: < 2 µM

O=C1CN(c2ccc(CNc3ncnc(N4CCCC4c4ccc(C(F)(F)F)cc4)c3F)cc2)CCN1 (centres unmarked) [Example 60, 4-[4-[[[5-fluoro-6-[2-[4-(trifluoromethyl)phenyl]pyrrolidin-1-yl]pyrimidin-4-yl]amino]methyl]phenyl]piperazin-2-one]
Gal4 activity range @ 1 μM (% inhibition) [1]: >20 % inhibition
IC50 [2]: < 2 µM

NC(=O)[C@@H](CC1CCNC1=O)Nc1ncnc(N2CCCC2c2ccc(C(F)(F)F)cc2)c1F (stereo partly drawn) [Example 63, (2R)-2-[[5-fluoro-6-[2-[4-(trifluoromethyl)phenyl]pyrrolidin-1-yl]pyrimidin-4-yl]amino]-3-(2-oxopyrrolidin-3-yl)propanamide]
Gal4 activity range @ 1 μM (% inhibition) [1]: >20 % inhibition
IC50 [2]: < 2 µM

CC(C)(C)C[C@@H](Nc1ncnc(N2CCCC2c2ccc(C(F)(F)F)cc2)c1F)C1CNCCO1 (stereo partly drawn) [Example 64, N-[(1R)-3,3-dimethyl-1-morpholin-2-yl-butyl]-5-fluoro-6-[2-[4-(trifluoromethyl)phenyl]pyrrolidin-1-yl]pyrimidin-4-amine]
Gal4 activity range @ 1 μM (% inhibition) [1]: >20 % inhibition
IC50 [2]: < 2 µM

COc1cc(C(F)(F)F)ccc1C1CCCN1c1ncnc(N[C@H](CC(C)(C)C)C(N)=O)c1F (stereo partly drawn) [Example 65, (2R)-2-[[5-fluoro-6-[2-[2-methoxy-4-(trifluoromethyl)phenyl]pyrrolidin-1-yl]pyrimidin-4-yl]amino]-4,4-dimethyl-pentanamide]
Gal4 activity range @ 1 μM (% inhibition) [1]: >20 % inhibition
IC50 [2]: < 0.5 µM

Cc1ccc(CNc2nccc(N3CCCC3c3ccc(C(F)(F)F)cc3)c2F)cn1 (centres unmarked) [Example 66, 3-fluoro-N-[(6-methyl-3-pyridyl)methyl]-4-[2-[4-(trifluoromethyl)phenyl]pyrrolidin-1-yl]pyridin-2-amine]
Gal4 activity range @ 1 μM (% inhibition) [1]: >50 % inhibition
IC50 [2]: < 2 µM

CC(C)(C)C[C@@H](Nc1ncnc(N2CCOCC2c2ccc(OC(F)(F)F)cc2)c1F)C(N)=O (stereo partly drawn) [Example 68, (2R)-2-[[5-fluoro-6-[3-[4-(trifluoromethoxy)phenyl]morpholin-4-yl]pyrimidin-4-yl]amino]-4,4-dimethyl-pentanamide]
Gal4 activity range @ 1 μM (% inhibition) [1]: >80 % inhibition
IC50 [2]: < 2 µM

COc1ccc(Cn2ccc3c(N4CCCC4c4ccc(C(F)(F)F)cc4)ncnc32)cc1OC (centres unmarked) [Example 69, 7-[(3,4-dimethoxyphenyl)methyl]-4-[2-[4-(trifluoromethyl)phenyl]pyrrolidin-1-yl]pyrrolo[2,3-d]pyrimidine]
Gal4 activity range @ 1 μM (% inhibition) [1]: >50 % inhibition
IC50 [2]: < 1 µM

CC(C)(C)C[C@@H](Nc1ncnc(N2CCCC2c2ccc(C(F)(F)F)c(F)c2)c1F)C(N)=O (stereo partly drawn) [Example 72, (2R)-2-[[5-fluoro-6-[2-[3-fluoro-4-(trifluoromethyl)phenyl]pyrrolidin-1-yl]pyrimidin-4-yl]amino]-4,4-dimethyl-pentanamide]
Gal4 activity range @ 1 μM (% inhibition) [1]: >80 % inhibition
IC50 [2]: < 1 µM

CS(=O)(=O)c1ccc(Cn2ccc3c(N4CCOC[C@@H]4c4ccc(OC(F)(F)F)cc4)ncnc32)nc1 [Example 330, (3S)-4-[7-[(5-methylsulfonyl-2-pyridyl)methyl]pyrrolo[2,3-d]pyrimidin-4-yl]-3-[4-(trifluoromethoxy)phenyl] morpholine]
IC50 [2]: < 2 µM
